GI50 and TGI data for 8 compounds are collected here from PubChem BioAssay (NCI).

“And” between values parts separate entries of the source, which are not always exact repeats. Identical values can stand only once.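 Dose response: 5 concentrations. Exposure: 48 h. Format: 96-well plates. Endpoint: linear interpolation; highest concentration if not reached. At the GI50, growth is halved. TGI: total growth inhibition.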 Bounds are passed on as bounds.

Test systems include A498 renal; KM12 colon; MCF7 breast; NCI-H23 lung; NCI/ADR-RES ovarian; RPMI-8226 leukemia; RXF 393 renal; SNB-19 CNS; SR leukemia; UO-31 renal.
Holding throughout (assay): NCI anticancer screen, dose series, 48 h

`CCCCCCCCCCCCOC1C(C(CC(=O)N2CCN(Cc3ccc4c(c3)OCO4)CC2)NS(=O)(=O)c2cc(Cl)cc(Cl)c2)OC2OC(C)(C)OC21` (stereo unspecified): the GI50 was 43.4 µM with A498 renal; 18.1 µM in the experiment with KM12 colon; 4.45 µM with MCF7 breast; 17.4 µM with NCI-H23 lung; more than 100 µM with NCI/ADR-RES ovarian; 3.79 µM in the experiment with RPMI-8226 leukemia. Further, the GI50 in the experiment with RXF 393 renal is 6.43 µM; in the experiment on SNB-19 CNS it was 44.7 µM; in the experiment with SR leukemia, 3.85 µM; in the experiment on UO-31 renal it was 32.9 µM. Also, the TGI in the experiment with A498 renal was more than 100 µM; with KM12 colon it was more than 100 µM; with MCF7 breast it was 36.6 µM; in the experiment with NCI-H23 lung it was more than 100 µM; with NCI/ADR-RES ovarian, more than 100 µM; in the experiment on RPMI-8226 leukemia it was more than 47.5 µM. For the same compound, the TGI in the experiment on RXF 393 renal is 28.1 µM; in the experiment on SNB-19 CNS it was more than 100 µM; in the experiment with SR leukemia, 47.4 µM; in the experiment with UO-31 renal it was more than 100 µM.
As to `Nc1nc(=S)c2[nH]cnc2[nH]1`, the TGI in the experiment with A498 renal is > 23.8 µM and 93.7 µM and 12.6 µM; with RPMI-8226 leukemia, 2.77 µM and 22.3 µM and 3 µM; in the experiment on SNB-19 CNS it was > 100 µM and 241 µM and > 250 µM; in the experiment on SR leukemia, > 24.7 µM and 15.7 µM. Moreover, the GI50 in the experiment on KM12 colon was 0.816 µM and 3.25 µM and 3.14 µM; with MCF7 breast, 0.325 µM and 0.547 µM and 1.02 µM; in the experiment on NCI-H23 lung, 0.481 µM and 3.07 µM; in the experiment with NCI/ADR-RES ovarian, 0.37 µM and 0.421 µM and 0.96 µM; with RPMI-8226 leukemia, 0.255 µM and 1.3 µM and 0.488 µM; with RXF 393 renal, 0.395 µM and 0.474 µM and 0.984 µM. Further, the GI50 with SNB-19 CNS was 39.2 µM and 89 µM and 48.6 µM; in the experiment with SR leukemia, 0.0786 µM and 0.588 µM; in the experiment on UO-31 renal, 0.43 µM and 0.823 µM and 0.488 µM.
`NC(N)=N/N=C/c1c(-c2ccncc2)nc2sc(Cl)cn12`: the GI50 was 17.4 µM in the experiment with A498 renal; 2.48 µM in the experiment on KM12 colon; 5.19 µM with MCF7 breast; 10 µM in the experiment with NCI-H23 lung; 35.5 µM with NCI/ADR-RES ovarian; 6.52 µM in the experiment on RPMI-8226 leukemia. In addition, the GI50 is 15.2 µM in the experiment with RXF 393 renal, 7.62 µM in the experiment on SNB-19 CNS, 2.24 µM in the experiment on SR leukemia and 8.93 µM in the experiment on UO-31 renal. Further, the TGI in the experiment on A498 renal is 41.2 µM; in the experiment on KM12 colon it was 10.8 µM; in the experiment with MCF7 breast, more than 94.2 µM; with NCI-H23 lung, 24.1 µM; in the experiment on NCI/ADR-RES ovarian, more than 100 µM; with RPMI-8226 leukemia, 21.1 µM. For the same compound, the TGI in the experiment on RXF 393 renal is 33.2 µM; in the experiment with SNB-19 CNS, more than 20.6 µM; with SR leukemia, 4.97 µM; in the experiment with UO-31 renal, more than 22.7 µM.
Regarding `CN(C)c1ccc(N=C2C=CC(=C(C#N)C#N)c3ccccc32)cc1`, the TGI was determined as 1.37 µM in the experiment with A498 renal; 12 µM in the experiment with KM12 colon; 7.51 µM in the experiment on MCF7 breast; 4.19 µM with NCI-H23 lung; 2.34 µM in the experiment with NCI/ADR-RES ovarian; 11.6 µM in the experiment on RPMI-8226 leukemia. Further, the TGI in the experiment on RXF 393 renal was 8.6 µM; with SNB-19 CNS, 12.7 µM; in the experiment on SR leukemia it was 48.1 µM; in the experiment on UO-31 renal, 14.2 µM.
As for `O=c1nc2[nH]c3c(-c4n[nH]c(=O)[nH]c4=O)cccc3c2n[nH]1`, the GI50 in the experiment on A498 renal, in the experiment on KM12 colon, with MCF7 breast, with NCI-H23 lung, in the experiment with NCI/ADR-RES ovarian and in the experiment with RPMI-8226 leukemia was more than 100 µM each time. Besides, the GI50 in the experiment on RXF 393 renal, in the experiment on SNB-19 CNS, with SR leukemia and in the experiment with UO-31 renal was more than 100 µM in each case. The TGI with A498 renal, in the experiment on KM12 colon, with MCF7 breast, in the experiment on NCI-H23 lung, in the experiment with NCI/ADR-RES ovarian and with RPMI-8226 leukemia was more than 100 µM each time. Moreover, the TGI with RXF 393 renal, in the experiment with SNB-19 CNS, in the experiment on SR leukemia and in the experiment with UO-31 renal was more than 100 µM each time.
As to `COc1cccc(C2C(C#N)=C(N)Oc3cc4c(cc32)OCO4)c1` (stereo unspecified), the GI50 was 0.0311 µM in the experiment on A498 renal; 0.0404 µM with KM12 colon; 0.0351 µM with MCF7 breast; 0.0694 µM in the experiment with NCI-H23 lung; 0.0299 µM with NCI/ADR-RES ovarian; 0.0828 µM in the experiment with RPMI-8226 leukemia. The GI50 in the experiment on RXF 393 renal is 0.029 µM; in the experiment on SNB-19 CNS, 0.0682 µM; in the experiment with SR leukemia it was 0.0291 µM; in the experiment on UO-31 renal, 0.169 µM. Moreover, the TGI was 3 µM with A498 renal; 4.27 µM in the experiment with KM12 colon; 18.1 µM in the experiment with MCF7 breast; 15.8 µM in the experiment with NCI-H23 lung; 0.151 µM in the experiment on NCI/ADR-RES ovarian; 29.9 µM in the experiment on RPMI-8226 leukemia. Besides, the TGI was 0.0927 µM in the experiment with RXF 393 renal, more than 100 µM with SNB-19 CNS, 27.8 µM in the experiment with SR leukemia and more than 100 µM in the experiment on UO-31 renal.
`C=C(Cn1c2ccccc2c(=O)c2ccccc21)c1ccc(C(=O)Nc2ccccc2N)cc1`: the TGI with A498 renal was more than 27.2 µM; with KM12 colon it was more than 100 µM; in the experiment on MCF7 breast, more than 100 µM; in the experiment with NCI-H23 lung, more than 100 µM; in the experiment with NCI/ADR-RES ovarian, more than 100 µM; in the experiment with RPMI-8226 leukemia, 3.06 µM. The TGI is more than 100 µM in the experiment on RXF 393 renal, more than 100 µM in the experiment on SNB-19 CNS, 2.25 µM in the experiment on SR leukemia and more than 100 µM with UO-31 renal. The GI50 with KM12 colon is 2.43 µM; with MCF7 breast, more than 100 µM; in the experiment with NCI-H23 lung, 45.1 µM; in the experiment on NCI/ADR-RES ovarian, 2.31 µM; with RPMI-8226 leukemia, 0.36 µM; in the experiment with RXF 393 renal, more than 100 µM. Besides, the GI50 in the experiment with SR leukemia is 0.605 µM; in the experiment with UO-31 renal it was 2.64 µM.
With `COc1cc(/C=C\c2cc(OC)c(OC)c(OC)c2)cc(NS(=O)(=O)c2ccc(Cl)cc2)c1OC`, the GI50 in the experiment with A498 renal is 0.179 µM; with KM12 colon it was 0.572 µM; with MCF7 breast it was 0.375 µM; in the experiment with NCI-H23 lung, 0.71 µM; in the experiment on NCI/ADR-RES ovarian, 0.365 µM; in the experiment with RPMI-8226 leukemia, 0.387 µM. The GI50 with RXF 393 renal is 0.272 µM; in the experiment with SNB-19 CNS, 0.745 µM; in the experiment with SR leukemia it was 0.406 µM; with UO-31 renal it was 0.696 µM. The TGI is 0.832 µM in the experiment with A498 renal; more than 100 µM with KM12 colon; more than 100 µM with MCF7 breast; more than 100 µM in the experiment with NCI-H23 lung; more than 100 µM with NCI/ADR-RES ovarian; 33.2 µM in the experiment with RPMI-8226 leukemia. Besides, the TGI with RXF 393 renal is 1.24 µM; in the experiment with SNB-19 CNS, more than 100 µM; in the experiment with SR leukemia, 10.5 µM; with UO-31 renal it was more than 100 µM.
